Experiments:
Assay in all cases: cells
COLO-800 = assay type: functional, cell-based, Homo sapiens; conditions: Homo sapiens, COLO-800;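 note: growth inhibition of COLO-800 cells, read out with a cell viability assay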
Description: SANGER: Inhibition of human COLO-800 cell growth in a cell viability assay.

COLO-824 = assay type: functional, cell-based, Homo sapiens; conditions: Homo sapiens, COLO-824
Description: SANGER: Inhibition of human COLO-824 cell growth in a cell viability assay.

DB = assay type: functional, cell-based; conditions: Homo sapiens
Description: SANGER: Inhibition of human DB cell growth in a cell viability assay.

DJM-1 = assay type: functional, cell-based, Homo sapiens; conditions: Homo sapiens, DJM-1;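 note: growth inhibition of human DJM-1 cells, read out by a cell viability assay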
Description: SANGER: Inhibition of human DJM-1 cell growth in a cell viability assay.

DU-145 = assay type: functional, cell-based, Homo sapiens; conditions: Homo sapiens, DU-145
Description: SANGER: Inhibition of human DU-145 cell growth in a cell viability assay.

EFO-27 = assay type: functional, cell-based, Homo sapiens; conditions: Homo sapiens, EFO-27;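 note: growth inhibition of EFO-27 cells, read out with a cell viability assay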
Description: SANGER: Inhibition of human EFO-27 cell growth in a cell viability assay.

ES5 = assay type: functional, cell-based, Homo sapiens; conditions: Homo sapiens, ES5;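 note: growth inhibition of human ES5 cells, read out by a cell viability assay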
Description: SANGER: Inhibition of human ES5 cell growth in a cell viability assay.

EW-11 = assay type: functional, cell-based, Homo sapiens; conditions: Homo sapiens, EW-11;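 note: growth inhibition of human EW-11 cells, measured with a cell viability assay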
Description: SANGER: Inhibition of human EW-11 cell growth in a cell viability assay.

FaDu = assay type: functional, cell-based, Homo sapiens; conditions: Homo sapiens, FaDu;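 note: cell viability readout of growth inhibition in FaDu cells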
Description: SANGER: Inhibition of human FADU cell growth in a cell viability assay.

HCC1187 = assay type: functional, cell-based, Homo sapiens; conditions: Homo sapiens, HCC1187;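 note: growth inhibition of HCC1187 cells, read out with a cell viability assay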
Description: SANGER: Inhibition of human HCC1187 cell growth in a cell viability assay.

HDLM-2 = assay type: functional, cell-based; conditions: Homo sapiens;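 note: cell viability assay measuring suppression of HDLM-2 proliferation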
Description: SANGER: Inhibition of human HDLM-2 cell growth in a cell viability assay.

HH = assay type: functional, cell-based; conditions: Homo sapiens
Description: SANGER: Inhibition of human HH cell growth in a cell viability assay.

HuO-3N1 = assay type: functional, cell-based, Homo sapiens; conditions: Homo sapiens, HuO-3N1;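 note: cell viability readout used to measure how strongly compounds suppress proliferation of human HuO-3N1 cells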
Description: SANGER: Inhibition of human HuO-3N1 cell growth in a cell viability assay.

JVM-3 = assay type: functional, cell-based; conditions: Homo sapiens;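 note: growth inhibition of human JVM-3 cells, read out with a cell viability assay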
Description: SANGER: Inhibition of human JVM-3 cell growth in a cell viability assay.

K562 = assay type: functional, cell-based; conditions: Homo sapiens
Description: SANGER: Inhibition of human K-562 cell growth in a cell viability assay.

KYSE-450 = assay type: functional, cell-based; conditions: Homo sapiens;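 note: cell growth inhibition measured by a viability assay in human KYSE-450 cells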
Description: SANGER: Inhibition of human KYSE-450 cell growth in a cell viability assay.

L-428 = assay type: functional, cell-based; conditions: Homo sapiens
Description: SANGER: Inhibition of human L-428 cell growth in a cell viability assay.

LNCaP-Clone-FGC = assay type: functional, cell-based, Homo sapiens; conditions: Homo sapiens, LNCaP-Clone-FGC
Description: SANGER: Inhibition of human LNCaP-Clone-FGC cell growth in a cell viability assay.

LS-411N = assay type: functional, cell-based, Homo sapiens; conditions: Homo sapiens, LS-411N
LS-513 = assay type: functional, cell-based, Homo sapiens; conditions: Homo sapiens, LS-513
Description: SANGER: Inhibition of human LS-513 cell growth in a cell viability assay.

MEL-HO = assay type: functional, cell-based, Homo sapiens; conditions: Homo sapiens, MEL-HO
Description: SANGER: Inhibition of human MEL-HO cell growth in a cell viability assay.

MHH-PREB-1 = assay type: functional, cell-based; conditions: Homo sapiens;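 note: cell viability assay measuring inhibition of proliferation of human MHH-PREB-1 cells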
Description: SANGER: Inhibition of human MHH-PREB-1 cell growth in a cell viability assay.

MZ7-mel = assay type: functional, cell-based, Homo sapiens; conditions: Homo sapiens, MZ7-mel;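 note: growth inhibition of human MZ7-mel cells, measured by a cell viability assay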
Description: SANGER: Inhibition of human MZ7-mel cell growth in a cell viability assay.

NB17 = assay type: functional, cell-based; conditions: Homo sapiens;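 note: growth inhibition of NB17 cells, read out with a cell viability assay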
Description: SANGER: Inhibition of human NB17 cell growth in a cell viability assay.

NB7 = assay type: functional, cell-based; conditions: Homo sapiens;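 note: growth inhibition of NB7 cells, read out with a cell viability assay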
Description: SANGER: Inhibition of human NB7 cell growth in a cell viability assay.

NCI-H1648 = assay type: functional, cell-based, Homo sapiens; conditions: Homo sapiens, NCI-H1648;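 note: cell viability assay measuring inhibition of NCI-H1648 cell growth, from the Sanger screening data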
Description: SANGER: Inhibition of human NCI-H1648 cell growth in a cell viability assay.

NCI-H1651 = assay type: functional, cell-based, Homo sapiens; conditions: Homo sapiens, NCI-H1651;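 note: Read-out is a cell viability assay, with IC50 expressing inhibition of NCI-H1651 cell growth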
Description: SANGER: Inhibition of human NCI-H1651 cell growth in a cell viability assay.

NCI-H1770 = assay type: functional, cell-based; conditions: Homo sapiens;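 note: growth inhibition of NCI-H1770 cells determined with a viability readout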
Description: SANGER: Inhibition of human NCI-H1770 cell growth in a cell viability assay.

NCI-H1993 = assay type: functional, cell-based, Homo sapiens; conditions: Homo sapiens, NCI-H1993;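 note: growth inhibition of the cancer cell line, assessed with a cell viability assay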
Description: SANGER: Inhibition of human NCI-H1993 cell growth in a cell viability assay.

NCI-H2342 = assay type: functional, cell-based; conditions: Homo sapiens;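 note: growth inhibition of the cancer cell line, determined with a cell viability assay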
Description: SANGER: Inhibition of human NCI-H2342 cell growth in a cell viability assay.

NCI-H810 = assay type: functional, cell-based, Homo sapiens; conditions: Homo sapiens, NCI-H810;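 note: IC50 reflects inhibition of cancer cell line growth, read out with a cell viability assay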
Description: SANGER: Inhibition of human NCI-H810 cell growth in a cell viability assay.

NOMO-1 = assay type: functional, cell-based; conditions: Homo sapiens;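 note: growth inhibition of human NOMO-1 cells measured by a cell viability assay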
Description: SANGER: Inhibition of human NOMO-1 cell growth in a cell viability assay.

NY = assay type: functional, cell-based, Homo sapiens; conditions: Homo sapiens, NY
Description: SANGER: Inhibition of human NY cell growth in a cell viability assay.

OCI-AML2 = assay type: functional, cell-based; conditions: Homo sapiens;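 note: growth inhibition of OCI-AML2 cells, read out with a cell viability assay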
Description: SANGER: Inhibition of human OCI-AML2 cell growth in a cell viability assay.

OVCAR-8 = assay type: functional, cell-based, Homo sapiens; conditions: Homo sapiens, OVCAR-8;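 note: growth inhibition of human OVCAR-8 cells, read out by a cell viability assay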
Description: SANGER: Inhibition of human OVCAR-8 cell growth in a cell viability assay.

PSN1 = assay type: functional, cell-based, Homo sapiens; conditions: Homo sapiens, PSN1;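 note: suppression of growth of human PSN1 cells, read out by a cell viability assay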
Description: SANGER: Inhibition of human PSN1 cell growth in a cell viability assay.

RPMI-2650 = assay type: functional, cell-based, Homo sapiens; conditions: Homo sapiens, RPMI-2650
Description: SANGER: Inhibition of human RPMI-2650 cell growth in a cell viability assay.

RVH-421 = assay type: functional, cell-based, Homo sapiens; conditions: Homo sapiens, RVH-421
Description: SANGER: Inhibition of human RVH-421 cell growth in a cell viability assay.

SNU-387 = assay type: functional, cell-based, Homo sapiens; conditions: Homo sapiens, SNU-387
Description: SANGER: Inhibition of human SNU-387 cell growth in a cell viability assay.

SAOS-2 = assay type: functional, cell-based, Homo sapiens; conditions: Homo sapiens, SAOS-2;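 note: growth inhibition of human Saos-2 cells determined by a cell viability assay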
Description: SANGER: Inhibition of human Saos-2 cell growth in a cell viability assay.

A 172 = assay type: functional, cell-based, Homo sapiens; conditions: Homo sapiens, A 172;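 note: growth inhibition of A172 cells, measured with a cell viability readout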
Description: SANGER: Inhibition of human A172 cell growth in a cell viability assay.

ATN-1 = assay type: functional, cell-based; conditions: Homo sapiens;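 note: growth inhibition of human ATN-1 cells, read out with a cell viability assay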
Description: SANGER: Inhibition of human ATN-1 cell growth in a cell viability assay.

ASPC1 = assay type: functional, cell-based, Homo sapiens; conditions: Homo sapiens, ASPC1;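 note: growth inhibition of AsPC-1 cells, read out with a cell viability assay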
Description: SANGER: Inhibition of human AsPC-1 cell growth in a cell viability assay.

BB30-HNC = assay type: functional, cell-based, Homo sapiens; conditions: Homo sapiens, BB30-HNC;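 note: growth inhibition of the cultured cell line, read out by a cell viability assay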
Description: SANGER: Inhibition of human BB30-HNC cell growth in a cell viability assay.

CAL-72 = assay type: functional, cell-based, Homo sapiens; conditions: Homo sapiens, CAL-72;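 note: cell viability assay measuring inhibition of proliferation in the CAL-72 cell line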
Description: SANGER: Inhibition of human CAL-72 cell growth in a cell viability assay.

TE-5 = assay type: functional, cell-based, Homo sapiens; conditions: Homo sapiens, TE-5;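 note: inhibition of cell growth, read out by a cell viability assay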
Description: SANGER: Inhibition of human TE-5 cell growth in a cell viability assay.

TE-9 = assay type: functional, cell-based, Homo sapiens; conditions: Homo sapiens, TE-9;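 note: cell growth inhibition, measured with a cell viability readout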
Description: SANGER: Inhibition of human TE-9 cell growth in a cell viability assay.

TK-10 = assay type: functional, cell-based, Homo sapiens; conditions: Homo sapiens, TK-10;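 note: growth inhibition of TK-10 cells, read out in a cell viability assay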
Description: SANGER: Inhibition of human TK10 cell growth in a cell viability assay.

UACC-257 = assay type: functional, cell-based, Homo sapiens; conditions: Homo sapiens, UACC-257
Description: SANGER: Inhibition of human UACC-257 cell growth in a cell viability assay.

UACC-62 = assay type: functional, cell-based, Homo sapiens; conditions: Homo sapiens, UACC-62;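 note: growth inhibition of human UACC-62 cells, read out by a cell viability assay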
Description: SANGER: Inhibition of human UACC-62 cell growth in a cell viability assay.

UMUC3 = assay type: functional, cell-based, Homo sapiens; conditions: Homo sapiens, UMUC3;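 note: growth inhibition of human UM-UC-3 cells, read out with a cell viability assay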
Description: SANGER: Inhibition of human UM-UC-3 cell growth in a cell viability assay.

VMRC-RCZ = assay type: functional, cell-based; conditions: Homo sapiens;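 note: growth inhibition measured with a cell viability assay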
Description: SANGER: Inhibition of human VMRC-RCZ cell growth in a cell viability assay.

In the case of `O=c1cc(-c2cccc3c2Sc2ccccc2S3)oc(N2CCOCC2)c1` [KU-55933], the IC50 (COLO-800) is reported as over 10 µM, the IC50 (COLO-824) is reported as over 10 µM and the IC50 (DB) is reported as over 10 µM. It also gave an IC50 (DJM-1) of over 10 µM, an IC50 (DU-145) of 3.27 µM and an IC50 (EFO-27) of over 10 µM. It also gave an IC50 (ES5) of over 10 µM, an IC50 (EW-11) of over 10 µM and an IC50 (FaDu) of over 10 µM. The IC50 (HCC1187) was over 10 µM, the IC50 (HDLM-2) was over 10 µM and the IC50 (HH) was 8.28 µM. The IC50 (HuO-3N1) was 4.17 µM, the IC50 (JVM-3) was over 10 µM and the IC50 (K562) was over 10 µM. For the same compound, the IC50 (KYSE-450) was over 10 µM, the IC50 (L-428) was over 10 µM and the IC50 (LNCaP-Clone-FGC) was over 10 µM. The IC50 (LS-411N) was over 10 µM, the IC50 (LS-513) was over 10 µM and the IC50 (MEL-HO) was over 10 µM. For the same compound, the IC50 (MHH-PREB-1) was over 10 µM, the IC50 (MZ7-mel) was over 10 µM and the IC50 (NB17) was over 10 µM. For the same compound, the IC50 (NB7) was over 10 µM, the IC50 (NCI-H1648) was over 10 µM and the IC50 (NCI-H1651) was over 10 µM. It also gave an IC50 (NCI-H1770) of over 10 µM, an IC50 (NCI-H1993) of over 10 µM and an IC50 (NCI-H2342) of over 10 µM. It also gave an IC50 (NCI-H810) of over 10 µM, an IC50 (NOMO-1) of over 10 µM and an IC50 (NY) of over 10 µM. The IC50 (OCI-AML2) was over 10 µM, the IC50 (OVCAR-8) was over 10 µM and the IC50 (PSN1) was over 10 µM. It also gave an IC50 (RPMI-2650) of over 10 µM, an IC50 (RVH-421) of over 10 µM and an IC50 (SNU-387) of over 10 µM. The IC50 (SAOS-2) was over 10 µM, the IC50 (A 172) was over 10 µM and the IC50 (ATN-1) was over 10 µM. It also gave an IC50 (ASPC1) of over 10 µM, an IC50 (BB30-HNC) of over 10 µM and an IC50 (CAL-72) of 5.48 µM. It also gave an IC50 (TE-5) of over 10 µM, an IC50 (TE-9) of over 10 µM and an IC50 (TK-10) of over 10 µM. The IC50 (UACC-257) was over 10 µM, the IC50 (UACC-62) was over 10 µM and the IC50 (UMUC3) was over 10 µM. It also gave an IC50 (VMRC-RCZ) of over 10 µM.
Work on `CN(Cc1cnc2nc(N)nc(N)c2n1)c1ccc(C(=O)N[C@@H](CCC(=O)O)C(=O)O)cc1` [METHOTREXATE] yielded an IC50 (COLO-800) of 0.124 µM, an IC50 (COLO-824) of over 0.2 µM and an IC50 (DB) of 0.0213 µM. For the same compound, the IC50 (DJM-1) was over 0.2 µM, the IC50 (DU-145) was over 0.2 µM and the IC50 (EFO-27) was over 0.2 µM. It also gave an IC50 (ES5) of over 0.2 µM, an IC50 (EW-11) of over 0.2 µM and an IC50 (FaDu) of over 0.2 µM. For the same compound, the IC50 (HDLM-2) was 0.01 µM, the IC50 (HH) was 0.0316 µM and the IC50 (HuO-3N1) was 0.0891 µM. It also gave an IC50 (JVM-3) of 0.016 µM, an IC50 (K562) of over 0.2 µM and an IC50 (KYSE-450) of over 0.2 µM. The IC50 (L-428) was over 0.2 µM, the IC50 (LNCaP-Clone-FGC) was over 0.2 µM and the IC50 (LS-411N) was 0.118 µM. For the same compound, the IC50 (LS-513) was over 0.2 µM, the IC50 (MEL-HO) was over 0.2 µM and the IC50 (MHH-PREB-1) was 0.0132 µM. The IC50 (MZ7-mel) was over 0.2 µM, the IC50 (NB17) was over 0.2 µM and the IC50 (NB7) was over 0.2 µM. The IC50 (NCI-H1648) was over 0.2 µM, the IC50 (NCI-H1651) was over 0.2 µM and the IC50 (NCI-H1770) was 0.00198 µM. The IC50 (NCI-H1993) was over 0.2 µM, the IC50 (NCI-H2342) was over 0.2 µM and the IC50 (NCI-H810) was over 0.2 µM. It also gave an IC50 (NOMO-1) of 0.0162 µM, an IC50 (NY) of over 0.2 µM and an IC50 (OCI-AML2) of over 0.2 µM. For the same compound, the IC50 (OVCAR-8) was over 0.2 µM, the IC50 (PSN1) was over 0.2 µM and the IC50 (RPMI-2650) was over 0.2 µM. It also gave an IC50 (RVH-421) of over 0.2 µM, an IC50 (SNU-387) of over 0.2 µM and an IC50 (SAOS-2) of over 0.2 µM. For the same compound, the IC50 (A 172) was over 0.2 µM, the IC50 (ATN-1) was 0.00392 µM and the IC50 (ASPC1) was over 0.2 µM. It also gave an IC50 (BB30-HNC) of 0.0943 µM, an IC50 (CAL-72) of over 0.2 µM and an IC50 (TE-5) of over 0.2 µM. It also gave an IC50 (TE-9) of over 0.2 µM, an IC50 (TK-10) of over 0.2 µM and an IC50 (UACC-257) of over 0.2 µM. The IC50 (UACC-62) was over 0.2 µM, the IC50 (UMUC3) was over 0.2 µM and the IC50 (VMRC-RCZ) was over 0.2 µM.
Compound `Cn1cc(C2=C(c3ccc(Cl)cc3Cl)C(=O)NC2=O)c2ccccc21` [SB-216763] has an IC50 (COLO-800) of over 10 µM, an IC50 (COLO-824) of over 10 µM and an IC50 (DB) of over 10 µM. It also gave an IC50 (DJM-1) of over 10 µM, an IC50 (DU-145) of over 10 µM and an IC50 (EFO-27) of over 10 µM. For the same compound, the IC50 (ES5) was over 10 µM, the IC50 (EW-11) was over 10 µM and the IC50 (FaDu) was over 10 µM. For the same compound, the IC50 (HCC1187) was over 10 µM, the IC50 (HDLM-2) was 0.21 µM and the IC50 (HH) was over 10 µM. For the same compound, the IC50 (HuO-3N1) was over 10 µM, the IC50 (JVM-3) was over 10 µM and the IC50 (K562) was over 10 µM. For the same compound, the IC50 (KYSE-450) was over 10 µM, the IC50 (L-428) was over 10 µM and the IC50 (LNCaP-Clone-FGC) was over 10 µM. The IC50 (LS-411N) was over 10 µM, the IC50 (LS-513) was over 10 µM and the IC50 (MEL-HO) was over 10 µM. It also gave an IC50 (MHH-PREB-1) of over 10 µM, an IC50 (MZ7-mel) of over 10 µM and an IC50 (NB17) of over 10 µM. It also gave an IC50 (NB7) of over 10 µM, an IC50 (NCI-H1648) of over 10 µM and an IC50 (NCI-H1651) of over 10 µM. It also gave an IC50 (NCI-H1770) of 0.294 µM, an IC50 (NCI-H1993) of 8.37 µM and an IC50 (NCI-H2342) of over 10 µM. For the same compound, the IC50 (NCI-H810) was over 10 µM, the IC50 (NOMO-1) was over 10 µM and the IC50 (NY) was over 10 µM. For the same compound, the IC50 (OCI-AML2) was over 10 µM, the IC50 (OVCAR-8) was over 10 µM and the IC50 (PSN1) was over 10 µM. For the same compound, the IC50 (RPMI-2650) was over 10 µM, the IC50 (RVH-421) was over 10 µM and the IC50 (SNU-387) was over 10 µM. The IC50 (SAOS-2) was over 10 µM, the IC50 (A 172) was over 10 µM and the IC50 (ATN-1) was over 10 µM. For the same compound, the IC50 (ASPC1) was over 10 µM, the IC50 (BB30-HNC) was over 10 µM and the IC50 (CAL-72) was over 10 µM. The IC50 (TE-5) was over 10 µM, the IC50 (TE-9) was over 10 µM and the IC50 (TK-10) was over 10 µM. For the same compound, the IC50 (UACC-257) was over 10 µM, the IC50 (UACC-62) was over 10 µM and the IC50 (UMUC3) was over 10 µM. The IC50 (VMRC-RCZ) was over 10 µM.

From ChEMBL document CHEMBL1201861, “Genomics of Drug Sensitity in Cancer screening data, Wellcome Trust Sanger Institute”
